From ChEMBL document CHEMBL1201862, “PubChem BioAssay data set” (2004)
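How tested: cells in 96-well plates exposed to compound for 48 hours at five concentrations. GI50: concentration for 50% inhibition of growth.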 Active and inactive are the calls of the source. No stated cut-off is given here; in the data, active = GI50 up to about 1.1 µM and inactive = higher.

Legend:
Assay in all cases: NCI-60 cell line screen, 48 h
HCT-15 = tested on: HCT-15
A549 = tested on: A549
SF-295 = tested on: SF-295
IGROV-1 = tested on: IGROV-1
BT-549 = tested on: BT-549
NCI-H23 = tested on: NCI-H23
LOX IMVI = tested on: LOX IMVI
HCC 2998 = tested on: HCC 2998
UO-31 = tested on: UO-31
OVCAR-5 = tested on: OVCAR-5
NCI-H226 = tested on: NCI-H226
SK-MEL-5 = tested on: SK-MEL-5
NCI-H460 = tested on: NCI-H460
786-0 = tested on: 786-0
M14 = tested on: M14
U-251 = tested on: U-251
SF-539 = tested on: SF-539
Malme-3M = tested on: Malme-3M
RXF 393 = tested on: RXF 393
ACHN = tested on: ACHN
HL-60 = tested on: HL-60
MDA-N = tested on: MDA-N
PC-3 = tested on: PC-3
NCI/ADR-RES = tested on: NCI/ADR-RES
UACC-257 = tested on: UACC-257
UACC-62 = tested on: UACC-62
SR = tested on: SR
SNB-75 = tested on: SNB-75
CCRF-CEM = tested on: CCRF-CEM
SK-OV-3 = tested on: SK-OV-3
A498 = tested on: A498
MDA-MB-231 = tested on: MDA-MB-231
EKVX = tested on: EKVX
HOP-62 = tested on: HOP-62
OVCAR-4 = tested on: OVCAR-4
K562 = tested on: K562
HCT-116 = tested on: HCT-116
RPMI-8226 = tested on: RPMI-8226
SK-MEL-28 = tested on: SK-MEL-28
SK-MEL-2 = tested on: SK-MEL-2
SW-620 = tested on: SW-620
SN12C = tested on: SN12C
DU-145 = tested on: DU-145
OVCAR-3 = tested on: OVCAR-3
T47D = tested on: T47D
Hs-578T = tested on: Hs-578T
KM12 = tested on: KM12
NCI-H522 = tested on: NCI-H522
MDA-MB-435 = tested on: MDA-MB-435
OVCAR-8 = tested on: OVCAR-8
HT-29 = tested on: HT-29
SNB-19 = tested on: SNB-19
CAKI-1 = tested on: CAKI-1
TK-10 = tested on: TK-10
COLO 205 = tested on: COLO 205
HOP-92 = tested on: HOP-92
SF-268 = tested on: SF-268
MCF7 = tested on: MCF7

O=S(=O)(O)Nc1ccc(-c2nc3ccccc3s2)cc1Cl
GI50 (HCT-15): > 100 µM
GI50 (A549): > 100 µM (inactive)
GI50 (SF-295): > 100 µM (inactive)
GI50 (IGROV-1): 1.67 µM (inactive)
GI50 (BT-549): > 100 µM (inactive)
GI50 (NCI-H23): > 100 µM (inactive)
GI50 (LOX IMVI): > 100 µM (inactive)
GI50 (HCC 2998): > 100 µM (inactive)
GI50 (UO-31): > 100 µM (inactive)
GI50 (OVCAR-5): 16.1 µM (inactive)
GI50 (NCI-H226): 14.6 µM (inactive)
GI50 (SK-MEL-5): > 100 µM (inactive)
GI50 (NCI-H460): > 100 µM (inactive)
GI50 (786-0): > 100 µM (inactive)
GI50 (M14): > 100 µM (inactive)
GI50 (U-251): > 100 µM (inactive)
GI50 (SF-539): > 100 µM (inactive)
GI50 (Malme-3M): > 100 µM (inactive)
GI50 (RXF 393): > 100 µM (inactive)
GI50 (ACHN): > 100 µM (inactive)
GI50 (HL-60): > 100 µM (inactive)
GI50 (MDA-N): > 100 µM (inactive)
GI50 (PC-3): > 100 µM (inactive)
GI50 (NCI/ADR-RES): > 100 µM (inactive)
GI50 (UACC-257): > 100 µM (inactive)
GI50 (UACC-62): > 100 µM (inactive)
GI50 (SR): > 100 µM (inactive)
GI50 (SNB-75): > 100 µM (inactive)
GI50 (CCRF-CEM): > 100 µM (inactive)
GI50 (SK-OV-3): > 100 µM (inactive)
GI50 (A498): > 100 µM (inactive)
GI50 (MDA-MB-231): > 100 µM (inactive)
GI50 (EKVX): > 100 µM (inactive)
GI50 (HOP-62): > 100 µM (inactive)
GI50 (OVCAR-4): > 100 µM (inactive)
GI50 (K562): > 100 µM (inactive)
GI50 (HCT-116): > 100 µM (inactive)
GI50 (RPMI-8226): > 100 µM (inactive)
GI50 (SK-MEL-28): > 100 µM (inactive)
GI50 (SK-MEL-2): > 100 µM (inactive)
GI50 (SW-620): > 100 µM (inactive)
GI50 (SN12C): > 100 µM (inactive)
GI50 (DU-145): > 100 µM (inactive)
GI50 (OVCAR-3): > 100 µM (inactive)
GI50 (T47D): > 100 µM (inactive)
GI50 (Hs-578T): > 100 µM (inactive)
GI50 (KM12): > 100 µM (inactive)
GI50 (NCI-H522): > 100 µM (inactive)
GI50 (MDA-MB-435): > 100 µM (inactive)
GI50 (OVCAR-8): > 100 µM (inactive)
GI50 (HT-29): > 100 µM (inactive)
GI50 (SNB-19): > 100 µM (inactive)
GI50 (CAKI-1): > 100 µM (inactive)
GI50 (TK-10): 8.09 µM (inactive)
GI50 (COLO 205): > 100 µM (inactive)
GI50 (HOP-92): > 100 µM (inactive)

Cc1c(F)c(N)c2c(=O)cc(-c3ccc(NC(=O)[C@@H](N)CCCCN)c(F)c3)oc2c1F
GI50 (HCT-15): 14 µM
GI50 (SF-295): 13.2 µM (inactive)
GI50 (IGROV-1): 0.0532 µM (active)
GI50 (BT-549): 23.6 µM (inactive)
GI50 (LOX IMVI): 16.3 µM (inactive)
GI50 (UO-31): 14.8 µM (inactive)
GI50 (NCI-H460): 0.132 µM (active)
GI50 (SF-268): 12.8 µM (inactive)
GI50 (786-0): 7.48 µM (inactive)
GI50 (M14): 20.7 µM (inactive)
GI50 (MCF7): 0.0399 µM (active)
GI50 (RXF 393): 16.1 µM (inactive)
GI50 (ACHN): 16.2 µM (inactive)
GI50 (MDA-N): 12.5 µM (inactive)
GI50 (PC-3): 16.6 µM (inactive)
GI50 (NCI/ADR-RES): 20.4 µM (inactive)
GI50 (UACC-257): 0.209 µM (active)
GI50 (CCRF-CEM): 5.07 µM (inactive)
GI50 (SK-OV-3): 15.3 µM (inactive)
GI50 (A498): 0.057 µM (active)
GI50 (MDA-MB-231): 16.3 µM (inactive)
GI50 (EKVX): 11 µM (inactive)
GI50 (HOP-62): 12.3 µM (inactive)
GI50 (HCT-116): 5.16 µM (inactive)
GI50 (SK-MEL-28): 18.5 µM (inactive)
GI50 (SK-MEL-2): 17.5 µM (inactive)
GI50 (SN12C): 14.9 µM (inactive)
GI50 (DU-145): 14.5 µM (inactive)
GI50 (T47D): 0.0942 µM (active)
GI50 (KM12): 8.95 µM (inactive)
GI50 (MDA-MB-435): 8.65 µM (inactive)
GI50 (OVCAR-8): 13.7 µM (inactive)
GI50 (HT-29): 14.3 µM (inactive)
GI50 (SNB-19): 27 µM (inactive)
GI50 (TK-10): 0.239 µM (active)
GI50 (HOP-92): 26.7 µM (inactive)

CCc1[nH]c(=O)c2oc3cc4ccccc4cc3c2c1C(=O)O
GI50 (HCT-15): > 10 µM
GI50 (A549): > 10 µM (inactive)
GI50 (SF-295): > 10 µM (inactive)
GI50 (IGROV-1): 0.001 µM (active)
GI50 (BT-549): > 10 µM (inactive)
GI50 (LOX IMVI): > 10 µM (inactive)
GI50 (HCC 2998): > 10 µM (inactive)
GI50 (UO-31): > 10 µM (inactive)
GI50 (OVCAR-5): > 10 µM (inactive)
GI50 (NCI-H226): > 10 µM (inactive)
GI50 (NCI-H460): > 10 µM (inactive)
GI50 (SF-268): > 10 µM (inactive)
GI50 (786-0): > 10 µM (inactive)
GI50 (M14): > 10 µM (inactive)
GI50 (SF-539): > 10 µM (inactive)
GI50 (Malme-3M): > 10 µM (inactive)
GI50 (RXF 393): > 10 µM (inactive)
GI50 (ACHN): > 10 µM (inactive)
GI50 (HL-60): > 10 µM (inactive)
GI50 (PC-3): > 10 µM (inactive)
GI50 (NCI/ADR-RES): > 10 µM (inactive)
GI50 (UACC-257): > 10 µM (inactive)
GI50 (SR): > 10 µM (inactive)
GI50 (SNB-75): > 10 µM (inactive)
GI50 (MDA-MB-231): 0.00588 µM (active)
GI50 (EKVX): > 10 µM (inactive)
GI50 (OVCAR-4): > 10 µM (inactive)
GI50 (HCT-116): > 10 µM (inactive)
GI50 (SK-MEL-2): > 10 µM (inactive)
GI50 (SW-620): > 10 µM (inactive)
GI50 (SN12C): > 10 µM (inactive)
GI50 (DU-145): 3.91 µM (inactive)
GI50 (OVCAR-3): > 10 µM (inactive)
GI50 (Hs-578T): > 10 µM (inactive)
GI50 (KM12): > 10 µM (inactive)
GI50 (NCI-H522): > 10 µM (inactive)
GI50 (OVCAR-8): > 10 µM (inactive)
GI50 (HT-29): > 10 µM (inactive)
GI50 (SNB-19): > 10 µM (inactive)
GI50 (TK-10): > 10 µM (inactive)
GI50 (HOP-92): > 10 µM (inactive)
